Reference: patent publication US9421209B2, “Kinase modulators” (Rhizen Pharmaceuticals SA, priority 2009, dated 2016)
Like-named read-outs stand apart in the source and are kept apart here.

Assays:
P110 δ/Pi3K δ = P110 δ/Pi3K δ (Homo sapiens, UniProt O00329); experiment: Fluorescent (HTRF) determination of PI3K enzyme activity, δ isoform; format: biochemical; design: inhibition: dose or concentration left out as unconfirmed
In short: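 IC50 fitted from percent inhibition relative to blank and enzyme-only wells. Human PI3Kδ converts PIP2 to PIP3 after addition of 400 μM ATP solution, 30 min at room temperature. Product read by time-resolved FRET after stop and 6–18 h dark incubation with detection reagents.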

P110β = P110β (Homo sapiens, UniProt P42338); experiment: Fluorescent (HTRF) determination of PI3K enzyme activity, β isoform; format: biochemical
P110β, sequence (P42338 whole entry, canonical isoform): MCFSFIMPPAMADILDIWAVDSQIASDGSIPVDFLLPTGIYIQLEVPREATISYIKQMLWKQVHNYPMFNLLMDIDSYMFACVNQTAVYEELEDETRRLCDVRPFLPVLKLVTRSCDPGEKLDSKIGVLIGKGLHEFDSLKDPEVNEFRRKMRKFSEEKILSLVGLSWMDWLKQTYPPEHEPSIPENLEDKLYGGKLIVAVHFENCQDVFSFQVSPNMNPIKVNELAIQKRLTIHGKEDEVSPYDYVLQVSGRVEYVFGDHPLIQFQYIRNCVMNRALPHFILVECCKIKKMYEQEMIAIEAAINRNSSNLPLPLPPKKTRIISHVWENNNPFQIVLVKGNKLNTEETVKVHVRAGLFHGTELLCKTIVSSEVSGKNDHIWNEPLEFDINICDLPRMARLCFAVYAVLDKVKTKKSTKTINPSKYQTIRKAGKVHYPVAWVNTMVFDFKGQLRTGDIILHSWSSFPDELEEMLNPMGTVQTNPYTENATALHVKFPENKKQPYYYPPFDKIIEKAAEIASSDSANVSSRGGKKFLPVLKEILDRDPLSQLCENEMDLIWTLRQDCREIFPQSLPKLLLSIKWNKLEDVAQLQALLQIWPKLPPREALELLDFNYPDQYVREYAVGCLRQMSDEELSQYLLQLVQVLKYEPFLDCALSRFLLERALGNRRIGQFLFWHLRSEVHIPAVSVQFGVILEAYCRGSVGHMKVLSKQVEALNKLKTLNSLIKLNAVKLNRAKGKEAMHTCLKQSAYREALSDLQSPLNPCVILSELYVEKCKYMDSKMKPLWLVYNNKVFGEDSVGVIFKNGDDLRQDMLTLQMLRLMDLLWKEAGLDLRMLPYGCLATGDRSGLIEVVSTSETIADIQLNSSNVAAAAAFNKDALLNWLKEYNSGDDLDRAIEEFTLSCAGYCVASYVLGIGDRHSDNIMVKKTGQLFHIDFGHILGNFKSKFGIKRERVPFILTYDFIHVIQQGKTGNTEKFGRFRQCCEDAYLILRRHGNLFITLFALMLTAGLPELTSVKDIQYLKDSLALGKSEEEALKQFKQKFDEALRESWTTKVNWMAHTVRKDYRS
P110β, sequence (P27986 whole entry partner, canonical isoform): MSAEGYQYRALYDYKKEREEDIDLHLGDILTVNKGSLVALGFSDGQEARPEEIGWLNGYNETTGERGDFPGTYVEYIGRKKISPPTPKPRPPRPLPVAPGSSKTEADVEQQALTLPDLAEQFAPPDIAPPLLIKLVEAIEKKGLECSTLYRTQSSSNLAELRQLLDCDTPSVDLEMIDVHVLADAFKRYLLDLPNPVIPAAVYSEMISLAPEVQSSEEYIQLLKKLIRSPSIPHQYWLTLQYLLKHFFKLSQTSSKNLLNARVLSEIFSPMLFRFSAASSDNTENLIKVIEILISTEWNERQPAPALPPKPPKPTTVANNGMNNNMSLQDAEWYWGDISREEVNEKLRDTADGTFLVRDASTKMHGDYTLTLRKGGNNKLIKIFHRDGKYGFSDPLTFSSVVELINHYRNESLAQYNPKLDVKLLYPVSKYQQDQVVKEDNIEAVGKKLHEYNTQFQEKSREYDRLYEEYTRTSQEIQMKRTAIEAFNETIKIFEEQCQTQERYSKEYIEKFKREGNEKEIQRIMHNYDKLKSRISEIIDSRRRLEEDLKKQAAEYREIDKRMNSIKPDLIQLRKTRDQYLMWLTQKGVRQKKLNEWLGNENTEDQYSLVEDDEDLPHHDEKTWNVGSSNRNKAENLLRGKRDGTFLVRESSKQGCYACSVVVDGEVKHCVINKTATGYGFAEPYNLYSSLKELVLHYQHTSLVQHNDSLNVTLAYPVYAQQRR
In short: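 Recombinant human PI3K isoforms incubated 10 min at room temperature with inhibitor and 1.38 μM PIP2 (10 mM MgCl2, 5 mM DTT), then 30 min after adding 400 μM ATP stock. PIP3 formation detected by HTRF (665/620 nm); % inhibition versus blank and enzyme controls gives IC50.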

P110γ = P110γ (Homo sapiens, UniProt P48736); experiment: Fluorescent (HTRF) determination of PI3K enzyme activity, γ isoform; format: biochemical
P110γ, sequence (P48736 whole entry, canonical isoform): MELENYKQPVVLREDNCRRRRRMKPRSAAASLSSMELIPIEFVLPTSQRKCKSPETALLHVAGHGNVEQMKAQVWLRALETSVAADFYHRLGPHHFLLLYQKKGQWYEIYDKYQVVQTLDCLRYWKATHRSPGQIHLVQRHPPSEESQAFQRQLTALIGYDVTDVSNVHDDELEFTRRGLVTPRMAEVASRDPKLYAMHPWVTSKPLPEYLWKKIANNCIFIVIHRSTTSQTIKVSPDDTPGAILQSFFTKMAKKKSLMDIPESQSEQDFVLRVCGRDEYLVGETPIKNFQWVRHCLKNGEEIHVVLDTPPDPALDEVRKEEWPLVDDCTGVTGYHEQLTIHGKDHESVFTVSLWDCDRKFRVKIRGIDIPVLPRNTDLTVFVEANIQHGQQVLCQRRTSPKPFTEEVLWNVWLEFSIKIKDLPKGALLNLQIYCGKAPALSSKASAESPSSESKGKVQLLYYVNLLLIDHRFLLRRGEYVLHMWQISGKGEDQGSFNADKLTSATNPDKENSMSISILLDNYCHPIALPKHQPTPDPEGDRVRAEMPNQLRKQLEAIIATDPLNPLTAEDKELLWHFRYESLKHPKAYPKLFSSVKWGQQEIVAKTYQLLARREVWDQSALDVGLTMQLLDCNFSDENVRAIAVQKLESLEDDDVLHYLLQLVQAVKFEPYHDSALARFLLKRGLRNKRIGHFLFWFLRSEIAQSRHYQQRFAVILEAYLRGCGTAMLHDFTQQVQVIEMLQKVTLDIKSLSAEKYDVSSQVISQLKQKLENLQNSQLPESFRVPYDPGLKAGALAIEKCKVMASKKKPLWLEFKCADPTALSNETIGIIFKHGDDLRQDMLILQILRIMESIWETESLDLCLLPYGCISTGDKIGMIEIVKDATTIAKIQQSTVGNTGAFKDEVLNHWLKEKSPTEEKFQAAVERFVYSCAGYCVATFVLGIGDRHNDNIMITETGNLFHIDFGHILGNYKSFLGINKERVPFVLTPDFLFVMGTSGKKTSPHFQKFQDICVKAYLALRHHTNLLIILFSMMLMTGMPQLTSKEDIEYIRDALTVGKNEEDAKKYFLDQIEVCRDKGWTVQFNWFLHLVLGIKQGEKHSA
Text: (§1) Assay 1: Fluorescent determination of PI3Kinase Kinase enzyme activity
(§2) Phosphoinositide 3 kinases (PI3K) belong to a class of lipid kinases that play a critical role in the regulation of several key cellular processes. The PI3K are capable of phosphorylating the 3-hydroxy position of phosphoinositols thereby generating second messengers involved in downstream signalling events. The homogenous time resolved fluorescence (HTRF) assay allows detection of 3,4,5-triphosphate (PIP3) formed as a result of phosphorylation of phosphotidylinositol 4,5-biphosphate (PIP2) by PI3K isoforms such as α, β, γ or δ.
(§3) PI3K isoform activity for α, β, γ or δ was determined using a PI3K human HTRF™ Assay Kit (Millipore, Billerica, Mass.) with modifications. All incubations were carried out at room temperature. Briefly, 0.5 μl of 40× inhibitor (in 100% DMSO) or 100% DMSO were added to each well of a 384-well black plate (Greiner Bio-One, Monroe, N.C.) containing 14.5 μl 1× reaction buffer/PIP2 (10 mM MgCl2, 5 mM DTT, 1.38 μM PIP2) mix with or without enzyme and incubated for 10 min. After the initial incubation, 5 μl/well of 400 μM ATP was added and incubated for an additional 30 minutes. Reaction was terminated by adding 5 μl/well stop solution (Millipore, Billerica, Mass.). Five microliters of detection mix (Millipore, Billerica, Mass.) were then added to each well and was incubated for 6-18 h in the dark. HRTF ratio was measured on a microplate reader (BMG Labtech., Germany) at an excitation wavelength of 337 nm and emission wavelengths of 665 and 620 nm with an integration time of […]. Data were analyzed using Graphpad Prism (Graphpad software; San Diego Calif.) for IC50 determination. Percent inhibition was calculated based on the values for the blank and enzyme controls. The results are provided below in Table 2 & 3.

P110α = P110α (Homo sapiens, UniProt P42336); experiment: Fluorescent (HTRF) determination of PI3K enzyme activity, α isoform; format: biochemical
P110α, sequence (P42336 whole entry, canonical isoform): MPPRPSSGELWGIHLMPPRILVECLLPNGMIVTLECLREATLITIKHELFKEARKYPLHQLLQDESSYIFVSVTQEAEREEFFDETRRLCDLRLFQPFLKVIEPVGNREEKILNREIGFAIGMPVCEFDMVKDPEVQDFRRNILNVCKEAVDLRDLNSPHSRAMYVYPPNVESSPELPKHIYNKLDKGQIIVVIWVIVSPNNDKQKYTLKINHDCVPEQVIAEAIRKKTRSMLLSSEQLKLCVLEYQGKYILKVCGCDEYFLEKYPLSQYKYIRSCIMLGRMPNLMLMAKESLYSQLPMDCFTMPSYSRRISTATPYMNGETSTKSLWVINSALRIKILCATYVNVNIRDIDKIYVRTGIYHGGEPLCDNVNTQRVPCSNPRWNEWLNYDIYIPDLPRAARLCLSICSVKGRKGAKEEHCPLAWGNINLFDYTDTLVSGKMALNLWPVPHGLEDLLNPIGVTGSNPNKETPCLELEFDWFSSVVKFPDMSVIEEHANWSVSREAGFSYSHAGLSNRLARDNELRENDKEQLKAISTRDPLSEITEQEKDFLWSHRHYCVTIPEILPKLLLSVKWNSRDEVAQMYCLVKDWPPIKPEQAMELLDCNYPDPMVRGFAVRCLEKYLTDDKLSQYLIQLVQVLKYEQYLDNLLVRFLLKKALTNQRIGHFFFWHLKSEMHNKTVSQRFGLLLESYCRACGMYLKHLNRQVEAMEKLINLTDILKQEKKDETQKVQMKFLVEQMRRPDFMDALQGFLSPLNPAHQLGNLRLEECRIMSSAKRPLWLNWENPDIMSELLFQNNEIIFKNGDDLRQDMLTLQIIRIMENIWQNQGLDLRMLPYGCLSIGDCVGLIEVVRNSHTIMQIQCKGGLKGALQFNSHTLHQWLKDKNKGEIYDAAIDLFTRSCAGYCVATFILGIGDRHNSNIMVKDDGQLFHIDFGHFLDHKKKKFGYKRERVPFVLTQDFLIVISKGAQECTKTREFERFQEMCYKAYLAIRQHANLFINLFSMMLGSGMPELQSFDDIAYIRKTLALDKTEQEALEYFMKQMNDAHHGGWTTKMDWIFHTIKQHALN
P110α, sequence (P27986 whole entry partner, canonical isoform): as the sequence (P27986 whole entry partner, canonical isoform) above
Text: as §1, §2, §3

[1] = read-out: P110 δ/Pi3K δ IC 50 nM

P110 δ/Pi3K δ, sequence (O00329 whole entry, canonical isoform): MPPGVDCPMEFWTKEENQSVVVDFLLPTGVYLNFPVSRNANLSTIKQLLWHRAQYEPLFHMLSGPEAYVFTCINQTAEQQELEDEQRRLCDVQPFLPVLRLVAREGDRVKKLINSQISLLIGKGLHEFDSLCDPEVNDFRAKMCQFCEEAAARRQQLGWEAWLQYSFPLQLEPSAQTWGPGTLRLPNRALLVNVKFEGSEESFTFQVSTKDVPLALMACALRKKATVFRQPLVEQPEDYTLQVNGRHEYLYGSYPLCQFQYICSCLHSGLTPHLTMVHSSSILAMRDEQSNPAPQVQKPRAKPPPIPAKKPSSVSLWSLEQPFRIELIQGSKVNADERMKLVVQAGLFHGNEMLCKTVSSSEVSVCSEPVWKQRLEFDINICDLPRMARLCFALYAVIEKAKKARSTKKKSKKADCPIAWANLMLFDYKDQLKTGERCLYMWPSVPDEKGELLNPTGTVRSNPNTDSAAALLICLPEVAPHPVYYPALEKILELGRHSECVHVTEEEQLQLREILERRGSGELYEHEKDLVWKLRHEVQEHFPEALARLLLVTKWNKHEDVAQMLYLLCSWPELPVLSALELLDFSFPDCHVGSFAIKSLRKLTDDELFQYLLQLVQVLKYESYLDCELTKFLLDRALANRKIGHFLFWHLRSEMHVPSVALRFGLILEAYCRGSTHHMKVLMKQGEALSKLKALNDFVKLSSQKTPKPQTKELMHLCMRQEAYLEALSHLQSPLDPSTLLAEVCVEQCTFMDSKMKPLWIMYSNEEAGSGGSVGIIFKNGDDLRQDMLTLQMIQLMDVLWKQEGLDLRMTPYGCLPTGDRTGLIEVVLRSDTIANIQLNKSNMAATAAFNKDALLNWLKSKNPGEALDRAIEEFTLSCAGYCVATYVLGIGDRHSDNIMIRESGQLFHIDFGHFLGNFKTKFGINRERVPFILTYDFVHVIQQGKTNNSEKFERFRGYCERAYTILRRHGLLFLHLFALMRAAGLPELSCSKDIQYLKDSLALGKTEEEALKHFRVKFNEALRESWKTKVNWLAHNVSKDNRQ
P110 δ/Pi3K δ, sequence (P27986 whole entry partner, canonical isoform): as the sequence (P27986 whole entry partner, canonical isoform) above

Row | inhibition at 1 µM (P110 δ/Pi3K δ) [%] | IC50 (P110 δ/Pi3K δ; [1]) [nM] | inhibition at 1 µM (P110β) [%] | melting point [°C] | inhibition at 1 µM (P110γ) [%] | inhibition at 1 µM (P110α) [%] | inhibition (P110 δ/Pi3K δ) [%] | IC50 (P110 δ/Pi3K δ; read-out: P110 δ/ Pi3K δ IC 50 nM) [nM] | SMILES
1 | 50 to 100 | < 250 | 25 to 50 | 235 to 237 | < 25 | < 25 |  |  | Nc1ncnc2c1c(-c1cc(O)cc(F)c1)nn2Cc1oc2ccccc2c(=O)c1-c1cccc(F)c1 [Example 68, 2-((4-amino-3-(3-fluoro-5-hydroxyphenyl)-1H-pyrazolo[3,4-d]pyrimidin-1-yl)methyl)-3-(3-fluorophenyl)-4H-chromen-4-one]
2 | 50 to 100 | < 250 | 25 to 50 | 212 to 216 | < 25 | < 25 |  |  | CC(c1oc2ccccc2c(=O)c1-c1ccccc1)n1nc(-c2cccc(O)c2)c2c(N)ncnc21 (centres unmarked) [Example 42, 2-(1-(4-Amino-3-(3-hydroxyphenyl)-1H-pyrazolo[3,4-d]pyrimidin-1-yl)ethyl)-3-phenyl-4H-chromen-4-one]
3 | 50 to 100 | < 250 | 50 to 100 | 154 to 158 | < 25 | < 25 |  |  | Nc1ncnc2c1c(-c1cccc(O)c1)nn2Cc1oc2ccccc2c(=O)c1-c1ccccc1 [Example 53, 2-((4-Amino-3-(3-hydroxyphenyl)-1H-pyrazolo[3,4-d]pyrimidin-1-yl)methyl)-3-phenyl-4H-chromen-4-one]
4 |  |  | < 25 | 269 to 272 | 50 to 100 | < 25 | 50 to 100 |  | Cc1c[nH]c2cc(-c3nn(C(C)c4oc5ccccc5c(=O)c4-c4cccc(F)c4)c4ncnc(N)c34)ccc12 (centres unmarked) [Example 111, 2-(1-(4-amino-3-(3-methyl-1H-indol-6-yl)-1H-pyrazolo[3,4-d]pyrimidin-1-yl)ethyl)-3-(3-fluorophenyl)-4H-chromen-4-one]
5 | 50 to 100 | < 250 | < 25 | 280 to 283 | 50 to 100 | < 25 |  |  | Nc1ncnc2c1c(-c1cccc(O)c1)nn2Cc1oc2ccccc2c(=O)c1-c1cccc(F)c1 [Example 55, 2-((4-amino-3-(3-hydroxyphenyl)-1H-pyrazolo[3,4-d]pyrimidin-1-yl)methyl)-3-(3-fluorophenyl)-4H-chromen-4-one]
6 | 50 to 100 | < 250 | 25 to 50 | 135 to 138 | 25 to 50 | < 25 |  |  | C[C@H](Nc1ncnc2[nH]cnc12)c1oc2ccccc2c(=O)c1-c1cccc(F)c1 [Example 47, (S)-2-(1-(9H-purin-6-ylamino)ethyl)-3-(3-fluorophenyl)-4H-chromen-4-one]
7 |  |  | 25 to 50 | 214 to 217 | 25 to 50 | < 25 | 50 to 100 | < 250 | Cc1n[nH]c2cc(-c3nn(C(C)c4oc5ccccc5c(=O)c4-c4cccc(F)c4)c4ncnc(N)c34)ccc12 (centres unmarked) [Example 79, 2-(1-(4-amino-3-(3-methyl-1H-indazol-6-yl)-1H-pyrazolo[3,4-d]pyrimidin-1-yl)ethyl)-3-(3-fluorophenyl)-4H-chromen-4-one]
